Data from patent US12559454B2, “Benzenesulfonamide derivatives and uses thereof” (2692372 Ontario, Inc., priority 2019, dated 2026).

What was measured:
MV4-11 cells = experiment: CellTiter-Blue cell viability, MV-4-11; type: cell-based; conditions: Homo sapiens, 72 hrs exposure
Protocol: (§1) Anti-cancer efficacy of exemplary compounds of this application was assessed in vitro in different cancer cell lines. Cell viability was examined following treatment at various concentration of inhibitor (0.097656-50 μM) using a cell Titer-Blue cell viability assay. 1×10^4 cells (NHF, MV4-11, K562 and MOLM-13 cells)/well were plated in 96-well assay plates in culture medium. All cells were grown in DMEM, IMDM and RPMI-1640 supplemented with 10% FBS. After 24 hrs, test compounds and vehicle controls were added to appropriate wells so the final volume was 100 μl in each well. The cells were cultured for the desired test exposure period (72 hrs) at 37° C. and 5% CO2. The assay plates were removed from 37° C. incubator and 20 μl/well of CellTiter-Blue® Reagent was added. The plates were incubated using standard cell culture conditions for 1-4 hours and the plates were shaken for 10 seconds and record fluorescence at 560/590 nm.

MOLM-13 cells = experiment: CellTiter-Blue cell viability, MOLM-13; type: cell-based; conditions: Homo sapiens, 72 hrs exposure
Protocol: as §1

K562 cells = experiment: CellTiter-Blue cell viability, K562; type: cell-based; conditions: Homo sapiens, 72 hrs exposure
Protocol: as §1

tubulin = experiment: Tubulin polymerization assay; type: biochemical; conditions: for % Inhibition: Vmax normalized to tubulin only control; for % D.O.P.: degree of polymerization relative to tubulin control
Protocol: A96-well half-area clear flat-bottom microplate (Corning® #3697) was pre-heated in a plate reader (Cytation 3, BioTek) at 37° C. for 15 minutes prior to the start of each assay. Tubulin polymerization buffer (80 mM PIPES pH 6.9, 2 mM MgCl2, 0.5 mM EGTA, 15% glycerol, 1 mM GTP) was prepared from stock solutions and placed on ice. Inhibitors were prepared to M concentrations in buffer (80 mM PIPES pH 6.9, 2 mM MgCl2, 0.5 mM EGTA, 5% DMSO) from DMSO stock solutions. After the assay plate was pre-warmed, 10 μL of inhibitor or buffer control was added to selected wells. Every assay contained a tubulin only negative control for normalization of data, and a batabulin positive control. The assay plate was incubated at 37° C. for 3 minutes. During this time, a frozen aliquot of tubulin (10 mg/mL) in buffer (80 mM PIPES pH 6.9, 2 mM MgCl2, 0.5 mM EGTA) was defrosted by placing in a room temperature water bath. Once thawed, 200 μL of tubulin was mixed with 420 μL ice cold tubulin polymerization buffer (3 mg/mL tubulin in 80 mM PIPES, pH 6.9, 2 mM MgCl2, 0.5 mM EGTA, 1 mM GTP, 10.2% glycerol). To a 96-well plate on ice, aliquots of 100 μL tubulin was added to each well. From this plate, 90 μL of tubulin was immediately pipetted into all sample wells of the warmed assay plate using a multi-channel pipette. The assay plate was immediately put in the reader at 37° C. and shook for 5 s with orbital shaking at medium speed. The reader recorded the absorbance at 340 nm every 15 s for 30 min.
The resulting absorbance curves were normalized by subtracting each data point by the absorbance at time 0.
The largest change in absorbance over the assay time course was also recorded and related to the tubulin control as the % degree of polymerization (% D.O.P.).

| SMILES | IC50 (MV4-11 cells) [nM] | IC50 (MOLM-13 cells) [nM] | IC50 (K562 cells) [nM] | % Inhibition (tubulin) | % D.O.P. (tubulin) |
| --- | --- | --- | --- | --- | --- |
| CN(C)S(=O)(=O)c1c(F)c(F)c(F)c(F)c1F [Compound I-1, 2,3,4,5,6-pentafluoro-N,N-dimethylbenzenesulfonamide] | 1000 to 10000 | 1000 to 10000 | > 10000 | A (<10%) | A (>85%) |
| CN(C)S(=O)(=O)c1c(F)c(F)c(F)c(F)c1OCc1ccccc1 [Compound I-2, 2-(benzyloxy)-3,4,5,6-tetrafluoro-N,N-dimethylbenzenesulfonamide] | 100 to 1000 | 1000 to 10000 | > 10000 |  |  |
| CC(C)Oc1c(F)c(F)c(F)c(F)c1S(=O)(=O)N(C)C [Compound I-6, 2,3,4,5-tetrafluoro-6-isopropoxy-N,N-dimethylbenzenesulfonamide] | 1000 to 10000 | 1000 to 10000 | > 10000 |  |  |
| CN(C)S(=O)(=O)c1c(F)c(F)c(F)c(F)c1OC(F)F [Compound I-8, 2-(difluoromethoxy)-3,4,5,6-tetrafluoro-N,N-dimethylbenzenesulfonamide] | 1000 to 10000 | > 10000 | > 10000 |  |  |
| CN(C)S(=O)(=O)c1c(F)c(F)c(F)c(F)c1OCc1ccc(F)cc1F [Compound I-16, 2-((2,4-difluorobenzyl)oxy)-3,4,5,6-tetrafluoro-N,N-dimethylbenzenesulfonamide] | 100 to 1000 | 1000 to 10000 | > 10000 |  |  |
| CN(C)S(=O)(=O)c1c(F)c(F)c(F)c(F)c1OCc1ccc(C(N)=O)cc1 [Compound I-18, 4-((2-(N,N-dimethylsulfamoyl)-3,4,5,6-tetrafluorophenoxy)methyl)benzamide] | 1000 to 10000 | 1000 to 10000 | > 10000 |  |  |
| CN(C)S(=O)(=O)c1c(F)c(F)c(F)c(F)c1OCc1ccccn1 [Compound I-19, 2,3,4,5-tetrafluoro-N,N-dimethyl-6-(pyridin-2-ylmethoxy)benzenesulfonamide] | 1000 to 10000 | 1000 to 10000 | > 10000 |  |  |
| CN(C)S(=O)(=O)c1c(F)c(F)c(F)c(F)c1OC(=O)OC(C)(C)C [Compound I-21, tert-butyl (2-(N,N-dimethylsulfamoyl)-3,4,5,6-tetrafluorophenyl) carbonate] | > 10000 | > 10000 | > 10000 |  |  |
| CC(C)S(=O)(=O)Oc1c(F)c(F)c(F)c(F)c1S(=O)(=O)N(C)C [Compound I-22, 2-(N,N-dimethylsulfamoyl)-3,4,5,6-tetrafluorophenyl propane-2-sulfonate] |  | 1000 to 10000 | > 10000 |  |  |
| CN(C)S(=O)(=O)c1c(F)c(F)c(F)c(F)c1Cc1ccccc1 [Compound I-24, 2-benzyl-3,4,5,6-tetrafluoro-N,N-dimethylbenzenesulfonamide] | 1000 to 10000 | 1000 to 10000 | > 10000 |  |  |
| Cc1c(F)c(F)c(F)c(F)c1S(=O)(=O)N(C)C [Compound I-25, 2,3,4,5-tetrafluoro-N,N,6-trimethylbenzenesulfonamide] |  | 1000 to 10000 | > 10000 |  |  |
| CC(=O)c1c(F)c(F)c(F)c(F)c1S(=O)(=O)N(C)C [Compound I-26, 2-acetyl-3,4,5,6-tetrafluoro-N,N-dimethylbenzenesulfonamide] | 1000 to 10000 | 1000 to 10000 | > 10000 |  |  |
| COC(=O)c1c(F)c(F)c(F)c(F)c1S(=O)(=O)N(C)C [Compound I-31, methyl 2-(N,N-dimethylsulfamoyl)-3,4,5,6-tetrafluorobenzoate] | 100 to 1000 | 1000 to 10000 | > 10000 |  |  |
| CC(C)COC(=O)c1c(F)c(F)c(F)c(F)c1S(=O)(=O)N(C)C [Compound I-32, isobutyl 2-(N,N-dimethylsulfamoyl)-3,4,5,6-tetrafluorobenzoate] | 100 to 1000 | 1000 to 10000 | > 10000 |  |  |
| CN(C)C(=O)c1c(F)c(F)c(F)c(F)c1S(=O)(=O)N(C)C [Compound I-37, 2-(N,N-dimethylsulfamoyl)-3,4,5,6-tetrafluoro-N,N-dimethylbenzamide] | 1000 to 10000 | 1000 to 10000 | > 10000 |  |  |
| CN(C)S(=O)(=O)c1c(F)c(F)c(F)c(F)c1C1CC1 [Compound I-39, 2-cyclopropyl-3,4,5,6-tetrafluoro-N,N-dimethylbenzenesulfonamide] | 1000 to 10000 | 1000 to 10000 | > 10000 |  |  |
| CN(C)S(=O)(=O)c1c(F)c(F)c(F)c(F)c1NCc1ccccc1 [Compound I-48, 2-(benzylamino)-3,4,5,6-tetrafluoro-N,N-dimethylbenzenesulfonamide] | 1000 to 10000 | 1000 to 10000 | > 10000 |  |  |
| CNc1c(F)c(F)c(F)c(F)c1S(=O)(=O)N(C)C [Compound I-49, 2,3,4,5-tetrafluoro-N,N-dimethyl-6-(methylamino)benzenesulfonamide] | 1000 to 10000 | 1000 to 10000 | > 10000 |  |  |
| CN(C)S(=O)(=O)c1c(F)c(F)c(F)c(F)c1Nc1cccnc1 [Compound I-52, 2,3,4,5-tetrafluoro-N,N-dimethyl-6-(pyridin-3-ylamino)benzenesulfonamide] | 1000 to 10000 | > 10000 | 1000 to 10000 |  |  |
| CN(C)S(=O)(=O)c1c(F)c(F)c(F)c(F)c1NCC(F)F [Compound I-54, 2-((2,2-difluoroethyl)amino)-3,4,5,6-tetrafluoro-N,N-dimethylbenzenesulfonamide] | 1000 to 10000 | 1000 to 10000 | > 10000 |  |  |
| COc1ccc(NS(=O)(=O)c2c(F)c(F)c(F)c(F)c2OC(C)C)cc1F [Compound I-61, 2,3,4,5-tetrafluoro-N-(3-fluoro-4-methoxyphenyl)-6-isopropoxybenzenesulfonamide] | 100 to 1000 | 100 to 1000 | 100 to 1000 | A (<10%) | A (>85%) |
| COc1ccc(NS(=O)(=O)c2c(F)c(F)c(F)c(F)c2OCc2ccccc2)cc1F [Compound I-62, 2-(benzyloxy)-3,4,5,6-tetrafluoro-N-(3-fluoro-4-methoxyphenyl)benzenesulfonamide] | > 10000 | > 10000 | > 10000 | A (<10%) |  |
| COc1ccc(NS(=O)(=O)c2c(F)c(F)c(F)c(F)c2OC)cc1F [Compound I-64, 2,3,4,5-tetrafluoro-N-(3-fluoro-4-methoxyphenyl)-6-methoxybenzenesulfonamide] | ≤ 100 | 100 to 1000 | 100 to 1000 | A (<10%) | A (>85%) |
| COc1ccc(NS(=O)(=O)c2c(F)c(F)c(F)c(F)c2OCC(F)F)cc1F [Compound I-67, 2-(2,2-difluoroethoxy)-3,4,5,6-tetrafluoro-N-(3-fluoro-4-methoxyphenyl)benzenesulfonamide] | 100 to 1000 | 100 to 1000 | 100 to 1000 | C (>20%) | B (< 85%) |
| COc1ccc(NS(=O)(=O)c2c(F)c(F)c(F)c(F)c2OCC(F)(F)F)cc1F [Compound I-68, 2,3,4,5-tetrafluoro-N-(3-fluoro-4-methoxyphenyl)-6-(2,2,2-trifluoroethoxy)benzenesulfonamide] | 100 to 1000 | 1000 to 10000 | 100 to 1000 | B (10-20%) | B (< 85%) |
| COc1ccc(NS(=O)(=O)c2c(F)c(F)c(F)c(F)c2OCC2CC2)cc1F [Compound I-71, 2-(cyclopropylmethoxy)-3,4,5,6-tetrafluoro-N-(3-fluoro-4-methoxyphenyl)benzenesulfonamide] | 1000 to 10000 | > 10000 | 1000 to 10000 | A (<10%) | A (>85%) |
| COc1ccc(NS(=O)(=O)c2c(F)c(F)c(F)c(F)c2Oc2ccccc2)cc1F [Compound I-76, 2,3,4,5-tetrafluoro-N-(3-fluoro-4-methoxyphenyl)-6-phenoxybenzenesulfonamide] |  | 1000 to 10000 | 100 to 1000 | C (>20%) | B (< 85%) |
| COc1ccc(NS(=O)(=O)c2c(F)c(F)c(F)c(F)c2C(=O)O)cc1F [Compound I-92, 2,3,4,5-tetrafluoro-6-(N-(3-fluoro-4-methoxyphenyl)sulfamoyl)benzoic acid] | 100 to 1000 | 1000 to 10000 | > 10000 |  |  |
